Assays:
RSV-A2-GFP virus = experiment: microbe, parasite or virus in culture; type: cell-based, Human Respiratory Syncytial Virus; details: Calu-1 cells infected with RSV-A2-GFP, 96 hrs, GFP-expressing cells counted; read-out: RSV EC50
Method in brief: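 IC50 (GFP-expressing cell counts by Acumen imaging) and CC50 (same-well CellTiter-Glo) were obtained by 4-parameter logistic fitting. Compounds were tested in 10-point 3-fold series for 96 h at 37° C, 5% CO2. Thawed Calu-1 ARF cells were infected at MOI 1.2 with GFP-reporter RSV-A2 in 2% FBS DMEM.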

hMPV-GFP virus = experiment: microbe, parasite or virus in culture; type: cell-based, human metapneumovirus; details: VERO cells infected with hMPV-GFP, 48 hrs, GFP-expressing cells counted; read-out: hMPV EC50
Method in brief: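 Antiviral IC50 was derived from imaging counts of GFP-expressing cells, with CC50 from a same-well CellTiter-Glo read, both by 4-parameter logistic fitting. VERO cells plus hMPV-GFP (MOI 1.25) were exposed 48 h at 37 °C to 10-point 3-fold compound dilutions (typical final 40,300–2 nM).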

With Cc1nc(-c2ncccn2)sc1C(=O)N1C[C@@H]2[C@H](C1)[C@H]2Oc1cc(C(C)(C)N)cc(-c2cccc(F)c2)n1 [Example 16, ((1R,5S,6s)-6-((4-(2-aminopropan-2-yl)-6-(3-fluorophenyl)pyridin-2-yl)oxy)-3-azabicyclo[3.1.0]hexan-3-yl)(4-methyl-2-(pyrimidin-2-yl)thiazol-5-yl)methanone] the EC50 (RSV-A2-GFP virus) was under 10 nM and the EC50 (hMPV-GFP virus) was 10 to 100 nM.
Cc1nc(-c2ncccn2)sc1C(=O)N1C[C@@H]2[C@H](C1)[C@H]2Oc1cc(C(C)(C)N)cc(-c2ccc(F)c(Cl)c2)n1 [Example 17, ((1R,5S,6s)-6-((4-(2-aminopropan-2-yl)-6-(3-chloro-4-fluorophenyl)pyridin-2-yl)oxy)-3-azabicyclo[3.1.0]hexan-3-yl)(4-methyl-2-(pyrimidin-2-yl)thiazol-5-yl)methanone] gave an EC50 (RSV-A2-GFP virus) of under 10 nM and an EC50 (hMPV-GFP virus) of 10 to 100 nM.
In the case of Cc1nc(-c2ncccn2)sc1C(=O)N1C[C@@H]2[C@H](C1)[C@H]2Oc1cc(C(C)(C)N)cc(-c2ccc(Cl)c(F)c2)n1 [Example 18, ((1R,5S,6s)-6-((4-(2-aminopropan-2-yl)-6-(4-chloro-3-fluorophenyl)pyridin-2-yl)oxy)-3-azabicyclo[3.1.0]hexan-3-yl)(4-methyl-2-(pyrimidin-2-yl)thiazol-5-yl)methanone], the EC50 (RSV-A2-GFP virus) is reported as under 10 nM and the EC50 (hMPV-GFP virus) is reported as 10 to 100 nM.
Compound Cc1nc(-c2ncccn2)sc1C(=O)N1C[C@@H]2[C@H](C1)[C@H]2Oc1cc(C(C)(C)N)cc(-c2ccc(Cl)cc2)n1 [Example 19, ((1R,5S,6s)-6-((4-(2-aminopropan-2-yl)-6-(4-chlorophenyl)pyridin-2-yl)oxy)-3-azabicyclo[3.1.0]hexan-3-yl)(4-methyl-2-(pyrimidin-2-yl)thiazol-5-yl)methanone] has an EC50 (RSV-A2-GFP virus) of under 10 nM and an EC50 (hMPV-GFP virus) of under 10 nM.
Cc1nc(-c2ncccn2)sc1C(=O)N1C[C@@H]2[C@H](C1)[C@H]2Oc1cc(C(C)(C)N)cc(-c2ccccc2)n1 [Example 20, ((1R,5S,6s)-6-((4-(2-aminopropan-2-yl)-6-phenylpyridin-2-yl)oxy)-3-azabicyclo[3.1.0]hexan-3-yl)(4-methyl-2-(pyrimidin-2-yl)thiazol-5-yl)methanone] showed an EC50 (RSV-A2-GFP virus) of under 10 nM and an EC50 (hMPV-GFP virus) of over 100 nM.
Cc1nc(-c2ncccn2)sc1C(=O)N1C[C@@H]2[C@H](C1)[C@H]2Oc1cc(C(C)(C)N)cc(-c2ccc(C3CC3)cc2)n1 [Example 22, ((1R,5S,6s)-6-((4-(2-aminopropan-2-yl)-6-(4-cyclopropylphenyl)pyridin-2-yl)oxy)-3-azabicyclo[3.1.0]hexan-3-yl)(4-methyl-2-(pyrimidin-2-yl)thiazol-5-yl)methanone] gave an EC50 (RSV-A2-GFP virus) of under 10 nM and an EC50 (hMPV-GFP virus) of over 100 nM.
Cc1nc(-c2ncccn2)sc1C(=O)N1C[C@@H]2[C@H](C1)[C@H]2Oc1cc(C(C)(C)N)cc(-c2ccc(C#N)cc2)n1 [Example 23, 4-(4-(2-aminopropan-2-yl)-6-(((1R,5S,6s)-3-(4-methyl-2-(pyrimidin-2-yl)thiazole-5-carbonyl)-3-azabicyclo[3.1.0]hexan-6-yl)oxy)pyridin-2-yl)benzonitrile] showed an EC50 (RSV-A2-GFP virus) of under 10 nM and an EC50 (hMPV-GFP virus) of over 100 nM.
Compound Cc1nc(-c2ncccn2)sc1C(=O)N1C[C@@H]2[C@H](C1)[C@H]2Oc1cc(C(C)(C)N)cc(-c2ccc(OC(F)F)cc2)n1 [Example 24, ((1R,5S,6s)-6-((4-(2-aminopropan-2-yl)-6-(4-(difluoromethoxy)phenyl)pyridin-2-yl)oxy)-3-azabicyclo[3.1.0]hexan-3-yl)(4-methyl-2-(pyrimidin-2-yl)thiazol-5-yl)methanone] has an EC50 (RSV-A2-GFP virus) of under 10 nM and an EC50 (hMPV-GFP virus) of 10 to 100 nM.
With Cc1nc(-c2ncccn2)sc1C(=O)N1C[C@@H]2[C@H](C1)[C@H]2Oc1cc(C(C)(C)N)cc(-c2ccc(C(F)F)cc2)n1 [Example 25, ((1R,5S,6s)-6-((4-(2-aminopropan-2-yl)-6-(4-(difluoromethyl)phenyl)pyridin-2-yl)oxy)-3-azabicyclo[3.1.0]hexan-3-yl)(4-methyl-2-(pyrimidin-2-yl)thiazol-5-yl)methanone] the EC50 (RSV-A2-GFP virus) was under 10 nM and the EC50 (hMPV-GFP virus) was 10 to 100 nM.
Cc1nc(-c2ncccn2)sc1C(=O)N1C[C@@H]2[C@H](C1)[C@H]2Oc1cc(C(C)(C)N)cc(-c2ccc(C(C)(F)F)cc2)n1 [Example 26, ((1R,5S,6s)-6-((4-(2-aminopropan-2-yl)-6-(4-(1,1-difluoroethyl)phenyl)pyridin-2-yl)oxy)-3-azabicyclo[3.1.0]hexan-3-yl)(4-methyl-2-(pyrimidin-2-yl)thiazol-5-yl)methanone] showed an EC50 (RSV-A2-GFP virus) of under 10 nM and an EC50 (hMPV-GFP virus) of 10 to 100 nM.
Cc1nc(-c2ncccn2)sc1C(=O)N1C[C@@H]2[C@H](C1)[C@H]2Oc1cc(C(C)(C)N)cc(-c2ccc(C(F)(F)F)cc2)n1 [Example 27, ((1R,5S,6s)-6-((4-(2-aminopropan-2-yl)-6-(4-(trifluoromethyl)phenyl)pyridin-2-yl)oxy)-3-azabicyclo[3.1.0]hexan-3-yl)(4-methyl-2-(pyrimidin-2-yl)thiazol-5-yl)methanone] showed an EC50 (RSV-A2-GFP virus) of under 10 nM and an EC50 (hMPV-GFP virus) of 10 to 100 nM.
Cc1nc(-c2ncccn2)sc1C(=O)N1C[C@@H]2[C@H](C1)[C@H]2Oc1cc(C(C)(C)N)cc(-c2ccc(C(F)(F)F)nc2)n1 [Example 28, ((1R,5S,6s)-6-((4-(2-aminopropan-2-yl)-6′-(trifluoromethyl)-[2,3′-bipyridin]-6-yl)oxy)-3-azabicyclo[3.1.0]hexan-3-yl)(4-methyl-2-(pyrimidin-2-yl)thiazol-5-yl)methanone] was tested, and the EC50 (RSV-A2-GFP virus) was under 10 nM and the EC50 (hMPV-GFP virus) was 10 to 100 nM.
Work on Cc1nc(-c2ncccn2)sc1C(=O)N1C[C@@H]2[C@H](C1)[C@H]2Oc1cc(C(C)(C)N)cc(-c2ccc(C(F)(F)F)c(Cl)c2)n1 [Example 29, ((1R,5S,6s)-6-((4-(2-aminopropan-2-yl)-6-(3-chloro-4-(trifluoromethyl)phenyl)pyridin-2-yl)oxy)-3-azabicyclo[3.1.0]hexan-3-yl)(4-methyl-2-(pyrimidin-2-yl)thiazol-5-yl)methanone] yielded an EC50 (RSV-A2-GFP virus) of under 10 nM and an EC50 (hMPV-GFP virus) of 10 to 100 nM.
Work on Cc1nc(-c2ncccn2)sc1C(=O)N1C[C@@H]2[C@H](C1)[C@H]2Oc1cc(C(C)(C)N)cc(-c2ccc(C(F)(F)F)cc2Cl)n1 [Example 30, ((1R,5S,6s)-6-((4-(2-aminopropan-2-yl)-6-(2-chloro-4-(trifluoromethyl)phenyl)pyridin-2-yl)oxy)-3-azabicyclo[3.1.0]hexan-3-yl)(4-methyl-2-(pyrimidin-2-yl)thiazol-5-yl)methanone] yielded an EC50 (RSV-A2-GFP virus) of under 10 nM and an EC50 (hMPV-GFP virus) of 10 to 100 nM.
Cc1nc(-c2ncccn2)sc1C(=O)N1C[C@@H]2[C@H](C1)[C@H]2Oc1cc(C(C)(C)N)cc(-c2ccc(C(F)(F)F)c(F)c2F)n1 [Example 31, ((1R,5S,6s)-6-((4-(2-aminopropan-2-yl)-6-(2,3-difluoro-4-(trifluoromethyl)phenyl)pyridin-2-yl)oxy)-3-azabicyclo[3.1.0]hexan-3-yl)(4-methyl-2-(pyrimidin-2-yl)thiazol-5-yl)methanone] showed an EC50 (RSV-A2-GFP virus) of under 10 nM and an EC50 (hMPV-GFP virus) of 10 to 100 nM.
Work on Cc1ccc(-c2cc(C(C)(C)N)cc(O[C@H]3[C@@H]4CN(C(=O)c5sc(-c6ncccn6)nc5C)C[C@@H]43)n2)cc1C [Example 32, ((1R,5S,6s)-6-((4-(2-aminopropan-2-yl)-6-(3,4-dimethylphenyl)pyridin-2-yl)oxy)-3-azabicyclo[3.1.0]hexan-3-yl)(4-methyl-2-(pyrimidin-2-yl)thiazol-5-yl)methanone] yielded an EC50 (RSV-A2-GFP virus) of under 10 nM and an EC50 (hMPV-GFP virus) of over 100 nM.
For Cc1ccc(-c2cc(C(C)(C)N)cc(O[C@H]3[C@@H]4CN(C(=O)c5sc(-c6ncccn6)nc5C)C[C@@H]43)n2)c(C)c1 [Example 33, ((1R,5S,6s)-6-((4-(2-aminopropan-2-yl)-6-(2,4-dimethylphenyl)pyridin-2-yl)oxy)-3-azabicyclo[3.1.0]hexan-3-yl)(4-methyl-2-(pyrimidin-2-yl)thiazol-5-yl)methanone], the EC50 (RSV-A2-GFP virus) was under 10 nM and the EC50 (hMPV-GFP virus) was over 100 nM.
Compound Cc1nc(-c2ncccn2)sc1C(=O)N1C[C@@H]2[C@H](C1)[C@H]2Oc1cc(C(C)(C)N)cc(-c2ccc3c(c2)CCO3)n1 [Example 34, ((1R,5S,6s)-6-((4-(2-aminopropan-2-yl)-6-(2,3-dihydrobenzofuran-5-yl)pyridin-2-yl)oxy)-3-azabicyclo[3.1.0]hexan-3-yl)(4-methyl-2-(pyrimidin-2-yl)thiazol-5-yl)methanone] has an EC50 (RSV-A2-GFP virus) of under 10 nM and an EC50 (hMPV-GFP virus) of over 100 nM.
Work on Cc1cc(-c2cc(C(C)(C)N)cc(O[C@H]3[C@@H]4CN(C(=O)c5sc(-c6ncccn6)nc5C)C[C@@H]43)n2)ccc1F [Example 35, ((1R,5S,6s)-6-((4-(2-aminopropan-2-yl)-6-(4-fluoro-3-methylphenyl)pyridin-2-yl)oxy)-3-azabicyclo[3.1.0]hexan-3-yl)(4-methyl-2-(pyrimidin-2-yl)thiazol-5-yl)methanone] yielded an EC50 (RSV-A2-GFP virus) of under 10 nM and an EC50 (hMPV-GFP virus) of over 100 nM.
Cc1nc(-c2ncccn2)sc1C(=O)N1C[C@@H]2[C@H](C1)[C@H]2Oc1cc(C(C)(C)N)cc(-c2ccc(C#N)c(F)c2)n1 [Example 36, 4-(4-(2-aminopropan-2-yl)-6-(((1R,5S,6s)-3-(4-methyl-2-(pyrimidin-2-yl)thiazole-5-carbonyl)-3-azabicyclo[3.1.0]hexan-6-yl)oxy)pyridin-2-yl)-2-fluorobenzonitrile] showed an EC50 (RSV-A2-GFP virus) of under 10 nM and an EC50 (hMPV-GFP virus) of 10 to 100 nM.
Work on Cc1ccc(-c2cc(C(C)(C)N)cc(O[C@H]3[C@@H]4CN(C(=O)c5sc(-c6ncccn6)nc5C)C[C@@H]43)n2)cc1F [Example 37, ((1R,5S,6s)-6-((4-(2-aminopropan-2-yl)-6-(3-fluoro-4-methylphenyl)pyridin-2-yl)oxy)-3-azabicyclo[3.1.0]hexan-3-yl)(4-methyl-2-(pyrimidin-2-yl)thiazol-5-yl)methanone] yielded an EC50 (RSV-A2-GFP virus) of under 10 nM and an EC50 (hMPV-GFP virus) of 10 to 100 nM.

From patent US12643882B2, “Inhibitors of human respiratory syncytial virus and metapneumovirus” (priority 2022, dated 2026)
